Data as given in patent US7279497B2, “Benzopyran derivatives substituted with secondary amines including imidazole, their preparation and pharmaceutical compositions containing them” (Korea Research Institute of Chemical Technology, priority 2002, dated 2007).
Marks after values point to notes of the source that are not given here.

What was measured:
isolated rat aorta = experiment: Vasorelaxation effects on isolated blood vessels (methoxamine induced vasoconstriction); settings: rat aorta constricted with methoxamine (3 μM)
Method: The following experiment was conducted to examine whether the compounds of the formula 1 have vasorelaxation effects.
Male Sprague-Dawly rats (350-450 g, obtained from the Experimental Animal Team of the Korea Research Institute of Chemical Technology) were knocked unconscious by hitting the occipital region, sacrificed by cervical dislocation, and underwent thoracotomy. After being quickly removed, the thoracic aorta was deprived of the adipose tissue and cut into aortic rings of 3 mm width. The aorta was lightly rubbed with a modified Krebs Henseleit buffer (Physiological Salt Solution, PSS) soaked cotton club to remove the inner epithelial layer therefrom. While being suspended in an organ bath containing a physiological buffer, the vascular tissue was allowed to equilibrate under a resting tension of 2 g and then, stand for 1 hour at 37° C. for stabilization with a supply of a carbogen consisting of 95% O2-5% CO2.
Thereafter, the vascular tissue was constricted with 10^−5 M phenylephrine and washed several times with PSS and this procedure was repeated again to ensure the stable reactivity of vascular smooth muscle to repetitive constriction/dilatation.
In addition, 3×10^−6 M methoxamine was used to induce an intensive constriction in the vascular smooth muscle. When the vasoconstriction induced by the methoxamine reached and maintained a maximum, test compounds and controls were cumulatively added to the organ baths in concentrations of 1, 3, 10 and 30 μM so as to induce vasodilatation. Cromakalim, BMS-180448, and BMS-191095 were used as the controls.
Following the addition of test compounds, the change in the maximal constriction induced by methoxamine was calculated to plot a concentration-relaxation response curve. Through a linear regression analysis, IC50, the drug concentration at which the vascular tissue is 50% dilated, was obtained for each compound.

[1] = system: HUVECs (Human umbilical vein endothelial cells); experiment: Inhibitory effects on HUVEC tube formation; type: cell-based;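 for tube formation: from minus no inhibition up to plus-plus-plus complete inhibition versus vehicle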
Method: The Inhibitory effects of the compounds of the formula 1 on angiogenesis were meassured by the vascular tube formation assay of HUVECs (Human umbilical vein endothelial cells), which is one of the major angiogenic steps.
HUVECs were isolated from human umbilical vein, and cultured. HUVECs within passage 5 from confluent cultures were detached, and plated onto a layer of a bFGF (basic fibroblast growth factor)-reduced and polymerized Matrigel. Matrigel cultures were incubated with or without the compounds of formula 1, and the changes of cell morphology were captured through a phase contrast microscope and photographed.

SPF SD rats = settings: rat, in vivo, po;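 note: Six-week-old animals, two per group, followed across an observation period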
A549 implanted mice = experiment: Survival % in A549 implanted mice; type: in vivo; settings: for Survival %: 50 mg/Kg
Text: (§1) Nude mice (BALB/c nu/nu, male) were purchased from Charls River Japan, Inc., and housed and treated under SPF (Special Pathogen Free) facilities according to the regulation of NIH (national institutes of health). A549 cells isolated from human non small cell lung cancer (NSCLC) were purchased from ATCC ([…], USA), and maintained as an exponentially growing monolayer in Korea Research Institute of Chemical Technology. Effects of the compounds of present invention on implanted tumor growth were measured by the comparison of tumor sizes, in addition, the changes of body weights and survival % of nude mice were observed.
Survival percents were represented using following mathematical formula 2, where N0 is the number of mice at the first day of administration, and Nn is the number of mice at n days after administration. Survival %=Nn/N0×100 [Mathematical formula 2]

[2] = Changes of body weight in nude mice implanted A549; type: in vivo, nude mice (BALB/c nu/nu); settings: 50 mg/Kg
Text: as §1
The effects of the compounds of the formula 1 on changes of body weights were determined. Body weights of nude mice were measured using AND balance at 5 day intervals starting from the date of administration of compounds, and represented as a mean value of treated group […], respectively.

A549 NSCLC = experiment: Inhibition on A549 NSCLC growth in nude mice xenografts; type: in vivo, nude mice (BALB/c nu/nu); settings: for Inhibition (%) of tumor volume: 50 mg/Kg; for Tumor volume: 50 mg/Kg i.p. once daily day 1 to day 20
Method: Human tumor xenograft experiments were performed to evaluate whether the compounds of the formula 1 inhibit growth of human tumors implanted in nude mice.
as §1
Nude mice had been adjusted to the laboratory for 2-3 weeks after purchase, and all procedures were performed on male mice of 8 weeks of age, within a weight range of 18-20 g.
A549 tumor xenografts were established in the right flank of mice by subcutaneous injection of cells in 3×3×3 mm^3 size of culture. 24 hours after cell implantation, the administration of the compounds was started and which day is defined as day 1. Nude mice were injected intraperitoneally with the compound of example 23 (50 mg/kg) or vehicle (PBS containing 0.5% tween 80) once daily from day 1 to day 20. Tumor volume (V) was assessed by caliper measurement using the mathematical formula 1, where a was the longest diameter across the tumor and b was the corresponding perpendicular short diameter. Volume (mm^3)=a×b^2/2 [Mathematical Formula 1]
Inhibition (%) was calculated as (1−(VT)n/−(VC)n)×100, where (VT)n and (VC)n were the mean tumor volume of treated and control group at n days after administration of the compound. Each group consisted of 8 mice, and statistical significance was represented as student-T test (* p<0.05).

**Q.** For CC1(C)Oc2ccc(C#N)cc2C(N(Cc2ncc[nH]2)c2ccc(Cl)cc2)[C@H]1O (stereo partly drawn) [BMS-191095], which IC50 (isolated rat aorta) is on record?
**A.** 2.14 µM

**Q.** With CC1(C)Oc2ccc(C#N)cc2C(N2CCCC2=O)C1O (stereo not drawn) [Cromakalim] as the compound, how does the IC50 (isolated rat aorta) read?
**A.** 0.067 µM

**Q.** With COC(OC)[C@]1(C)Oc2ccc([N+](=O)[O-])cc2[C@H](N(Cc2ncc[nH]2)c2cccc(C)c2C)[C@H]1O [Example 12, (2R,3R,4S)-3,4-dihydro-2-dimethoxymethyl-3-hydroxy-2-methyl-6-nitro-4-[N-(2,3-dimethylphenyl)-N-(1H-imidazol-2-ylmethyl)amino]-2H-1-benzopyran] as the compound, how does the Tube formation ([1]; 50 μM) read?
**A.** +

**Q.** And the “clinical symptoms, body weight and mortality” value (from here on “clinical symptoms”) (SPF SD rats)?
**A.** no significant changes

**Q.** For COC(OC)[C@]1(C)Oc2ccc([N+](=O)[O-])cc2[C@H](N(Cc2ncc[nH]2)c2ccc(Br)cc2)[C@H]1O [Example 13, (2R,3R,4S)-3,4-dihydro-2-dimethoxymethyl-3-hydroxy-2-methyl-6-nitro-4-[N-(4-bromophenyl)-N-(1H-imidazol-2-ylmethyl)amino]-2H-1-benzopyran], which Tube formation ([1]; 50 μM) is on record?
**A.** +

**Q.** And the “clinical symptoms” value (SPF SD rats)?
**A.** no significant changes

**Q.** What does the source list for COC(OC)[C@@]1(C)Oc2ccc(C#N)cc2[C@@H](N(Cc2ncc[nH]2)c2ccc(Cl)cc2)[C@@H]1O [Example 22, (2S,3S,4R)-6-cyano-3,4-dihydro-2-dimethoxymethyl-3-hydroxy-2-methyl-4-[N-(4-chlorophenyl)-N-(1H-imidazol-2-ylmethyl)amino]-2H-1-benzopyran]?
**A.** Tube formation ([1]; 10 μM): +; Tube formation ([1]; 100 μM): ++; clinical symptoms, body weight and mortality (SPF SD rats): no significant changes

**Q.** For COC(OC)[C@]1(C)Oc2ccc(N)cc2[C@H](N(Cc2ncc[nH]2)c2ccc(Cl)cc2)[C@H]1O [Example 23, (2R,3R,4S)-6-amino-3,4-dihydro-2-dimethoxymethyl-3-hydroxy-2-methyl-4-[N-(4-chlorophenyl)-N-(1H-imidazol-2-ylmethyl)amino]-2H-1-benzopyran], which Survival % (A549 implanted mice; 1 day) is on record?
**A.** 100%

**Q.** What about the Survival % (A549 implanted mice; 5 days) of the same compound?
**A.** 100%

**Q.** And the Survival % (A549 implanted mice; 15 days)?
**A.** 100%

**Q.** And the Survival % (A549 implanted mice; 20 days)?
**A.** 100%

**Q.** What about the survival rate (A549 implanted mice; table 6) of the same compound?
**A.** 100%

**Q.** What about the “inhibitory effect on HUVEC tube formation” value ([1]; 50 uM) of the same compound?
**A.** didn't show any tube like structures

**Q.** And the Tube formation ([1]; 50 μM)?
**A.** +++

**Q.** And the “retardation or loss of body weight gain” value [2]?
**A.** not observed

**Q.** What about the Body weight ([2]; 1 day) of the same compound?
**A.** 22.30 g

**Q.** And the Body weight ([2]; 14 days)?
**A.** 25.42 g

**Q.** What about the Body weight ([2]; 25 days) of the same compound?
**A.** 26.17 g

**Q.** And the Body weight ([2]; 35 days)?
**A.** 27.10 g

**Q.** And the “Inhibition (%) of tumor volume” value (A549 NSCLC; 25 days)?
**A.** (40%)

**Q.** And the Tumor volume (A549 NSCLC; 25 days)?
**A.** 92.2 mm^3

**Q.** What about the “Inhibition (%) of tumor volume” value (A549 NSCLC; 35 days) of the same compound?
**A.** (39%)

**Q.** And the Tumor volume (A549 NSCLC; 35 days)?
**A.** 186.8 mm^3

**Q.** What about the “Inhibition (%) of tumor volume” value (A549 NSCLC; 45 days) of the same compound?
**A.** (50%)

**Q.** And the Tumor volume (A549 NSCLC; 45 days)?
**A.** 244.3* mm^3

**Q.** What about the “Inhibition (%) of tumor volume” value (A549 NSCLC; 65 days) of the same compound?
**A.** (52%)

**Q.** And the Tumor volume (A549 NSCLC; 65 days)?
**A.** 494.8* mm^3

**Q.** And the “Inhibition of A549 NSCLC growth” value (A549 NSCLC; from 45 days to 61 days after implantation)?
**A.** 50-52%

**Q.** And the “clinical symptoms” value (SPF SD rats)?
**A.** no significant changes

**Q.** Which results are given for COC(OC)[C@]1(C)Oc2ccc(N)cc2[C@H](N(Cc2ncc[nH]2)c2ccc(OC(F)(F)F)cc2)[C@H]1O [Example 26, (2R,3R,4S)-6-amino-3,4-dihydro-2-dimethoxymethyl-3-hydroxy-2-methyl-4-[N-(4-trifluoromethoxyphenyl)-N-(1H-imidazol-2-ylmethyl)amino]-2H-1-benzopyran]?
**A.** Tube formation ([1]; 50 μM): +; clinical symptoms, body weight and mortality (SPF SD rats): no significant changes

**Q.** Which results are given for COC(OC)[C@]1(C)Oc2ccc(N)cc2[C@H](N(Cc2ncc[nH]2)c2cccc(C)c2C)[C@H]1O [Example 27, (2R,3R,4S)-6-amino-3,4-dihydro-2-dimethoxymethyl-3-hydroxy-2-methyl-4-[N-(2,3-dimethylphenyl)-N-(1H-imidazol-2-ylmethyl)amino]-2H-1-benzopyran]?
**A.** Tube formation ([1]; 50 μM): +/−; clinical symptoms, body weight and mortality (SPF SD rats): no significant changes

**Q.** With COc1ccc(N(Cc2ncc[nH]2)[C@H]2c3cc(N)ccc3O[C@@](C)(C(OC)OC)[C@@H]2O)cc1 [Example 28, (2R,3R,4S)-6-amino-3,4-dihydro-2-dimethoxymethyl-3-hydroxy-2-methyl-4-[N-(4-methoxyphenyl)-N-(1H-imidazol-2-ylmethyl)amino]-2H-1-benzopyran] as the compound, how does the Tube formation ([1]; 50 μM) read?
**A.** +

**Q.** And the “clinical symptoms” value (SPF SD rats)?
**A.** no significant changes

**Q.** With COC(OC)[C@]1(C)Oc2ccc(N)cc2[C@H](N(Cc2ncc[nH]2)c2ccc(Br)cc2)[C@H]1O [Example 29, (2R,3R,4S)-6-amino-3,4-dihydro-2-dimethoxymethyl-3-hydroxy-2-methyl-4-[N-(4-bromophenyl)-N-(1H-imidazol-2-ylmethyl)amino]-2H-1-benzopyran] as the compound, how does the Tube formation ([1]; 50 μM) read?
**A.** +

**Q.** What about the “clinical symptoms” value (SPF SD rats) of the same compound?
**A.** no significant changes
